Measured values: patent US8980874B2, “Method and composition for treating diabetic ketoacidosis” (Midwestern University, priority 2009, dated 2015)
“Also recorded” adds a separate entry of the source. Where a name gives a salt, the structure may show the parent alone. Non-standard residues stand in square brackets, D forms with d. Residues, ends and D or L forms follow the SMILES beside them.

Experiments:
rat model of DKA [1] = assay: Blood glucose in streptozotocin-induced diabetic ketoacidosis rats; format: in vivo; conditions: for blood glucose, Day 4 (pre-tx): baseline before treatment on day 4, mean±SEM; for effect of treatment on blood glucose: day 4, result in words; for blood glucose, Day 4 (end of tx) / blood glucose, Day 4 (1 hour of tx): saline+insulin infusion, alone or after bolus BMS-182874 9 mg/kg or BQ123 1 mg/kg, mean±SEM; for blood glucose, Day 4 (end of tx): fifth hour
Protocol: (§1) Normotensive Sprague Dawley rats were kept on fasting for 2 hours with unlimited access to water. After 2 hours of fasting, rats were injected intraperitoneally with 150 mg/kg of streptozotocin in 0.05 mol/L citric acid, pH 4.3 to induced diabetes (Lam et al., 2005; Yuen et al., 2008), while non-diabetic control rats received an intraperitoneal injection of 0.05 mol/L citrate buffer (Lam et al., 2005; Yuen et al., 2008). Rats were allowed unlimited access to tap water and food. Each day rats were weighed and urine ketone levels were estimated by Urine Reagent Strips, 1K Parameter. Prior to streptozotocin or citrate buffer injection, baseline blood glucose levels were assessed by One Touch Ultra blood glucose strips from Lifescan, Milpitas, Calif., and baseline blood ketone levels were estimated using Cardiochek blood ketone analyzer. Blood glucose and ketone were measured again on day three and four to ensure the onset of hyperglycemia and ketoacidosis. […] Blood samples were withdrawn from the femoral […] for baseline reading prior to start of treatment, after the first hour of treatment, and then at the end of the treatment (fifth hour of experiment).
(§2) The animals were allowed to stabilize for at least 20 minutes following surgical procedures. Body weight, blood glucose, urinary ketone, blood ketone, arterial blood gases, blood electrolytes, mean arterial pressure, pulse pressure, heart rate, brain blood perfusion, brain and lung water content were determined in the following groups
(§3) Group 4: Diabetic saline/insulin treated (D-Saline+insulin treated): Rats were injected with streptozotocin in citrate buffer (150 mg/kg ip) to induce diabetes and ketoacidosis. On day three, rats were treated with 1.5 U/kg regular insulin (Humulin® R (Regular human insulin, rDNA origin). On day four, saline and insulin treatment was carried out. Rats were infused via cannulated femoral vein saline, 0.9% NaCl at 80 mL/kg/hr and 1.5 U/kg/hr regular insulin for one hour. During the next two through four hours, rats were infused with saline, 0.9% NaCl at 40 mL/kg/hr and 1.5 U/kg/hr regular insulin (Yuen et al., 2008).
(§4) Group 5: Diabetic BMS-182874/saline/insulin treated (D-BMS+Saline+insulin treated): Rats were injected with streptozotocin in citrate buffer (150 mg/kg ip) to induce diabetes and ketoacidosis. On day three, rats were treated with 1.5 U/kg regular insulin. On day four, rats were administered a bolus dose of selective ETA receptor antagonist, BMS-182874 (9 mg/kg), then saline and insulin treatment was carried out. Rats were infused via cannulated femoral vein saline, 0.9% NaCl at 80 mL/kg/hr and 1.5 U/kg/hr regular insulin for one hour. During the next two through four hours rats were infused with saline, 0.9% NaCl at 40 mL/kg/hr and 1.5 U/kg/hr regular insulin.
(§5) Group 6: Diabetic BQ123/saline/insulin treated (D-BQ+saline+insulin treated): Same as above for Group 5, except BQ123 (1 mg/kg body weight) is used as a substitute for BMS-182874 (9 mg/kg).
(§6) Data are presented as mean±SEM. The significance of differences was estimated by one-way analysis of variance (intra group comparison with respect to base line data) and two-way analysis of variance (inter group comparison with respect to corresponding time points from each groups) followed by application of the Dunnett's Multiple Comparisons and Bonferroni test respectively. A P value of less than 0.05 was considered to be significant. The statistical analysis was processed with GraphPad Prism software Version 5.00.

rat model of DKA [2] = assay: Blood ketone levels in diabetic ketoacidosis rats; format: in vivo; conditions: for blood ketone levels, Day (pre tx): baseline before treatment; for blood ketone levels, Day (pre tx) / blood ketone levels, Day 4 (end of tx): mean±SEM; for effect of treatment on blood ketones: day 4, result in words (Table 2, FIG. 2); for blood ketone levels, Day 4 (end of tx): saline+insulin, alone or after bolus BMS-182874 9 mg/kg or BQ123 1 mg/kg
Protocol: as §1, §2, §3, §4, §5, §6

rat model of DKA [3] = assay: Brain blood perfusion (Laser Doppler Flowmetry) in diabetic ketoacidosis rats; format: in vivo; conditions: day 4, FIG. 6, antagonist given with saline+insulin, result in words
Protocol: A burr hole was drilled into the rat skull approximately 2 millimeters (mm) to the left of midline, being careful not to disturb the brain tissue itself. Cerebrovascular perfusion was measured via a fiber optic probe (PF407) applied to the surface of the rat brain. The probe was connected to a Periflux PF2b 4000 Laser Doppler Flowmetry unit (Perimed, Stockholm, Sweden). The perfusion was determined by measuring the passage of red blood cells through the capillaries.
as §3, §4, §5, §6

[4] = test system: intrathecal (IT) injection of ET-1 into rats; conditions: pre-treatment, intrathecal ET-1 in rats; cited from earlier work
[5] = test system: rats induced with neurogenic pulmonary edema; conditions: cited from earlier work

Compound	blood glucose, Day 4 (pre-tx) (rat model of DKA [1]) [mg/dL]	effect of treatment on blood glucose (rat model of DKA [1])	blood glucose, Day 4 (end of tx) (rat model of DKA [1]) [mg/dL]	blood glucose, Day 4 (1 hour of tx) (rat model of DKA [1]) [mg/dL]	blood ketone levels, Day (pre tx) (rat model of DKA [2]) [mg/dL]	effect of treatment on blood ketones (rat model of DKA [2]; hydrochloride)	effect of treatment on blood ketones (rat model of DKA [2]; listed as BMS, hydrochloride)	blood ketone levels, Day 4 (end of tx) (rat model of DKA [2]) [mg/dL]	effect on cerebral blood perfusion (rat model of DKA [3]; hydrochloride)	effect on cerebral blood perfusion (rat model of DKA [3]; listed as BMS182874, hydrochloride)	effect on pulmonary edema [4]	reduction of mortality rate [4] [%]	effect on hypoxia and hypercapnea [5]	effect of treatment on blood ketones (rat model of DKA [2])	effect on cerebral blood perfusion (rat model of DKA [3])
Cc1noc(NS(=O)(=O)c2cccc3c(N(C)C)cccc23)c1C [BMS-182874, (5-Dimethylamino)-N-(3,4-dimethyl-5-isoxazolyl)-1-naphthalene sulfonamide hydrochloride]	522 ± 18	did not significantly affect blood glucose	263 ± 32	446 ± 36	31.01 ± 2.29	did not significantly affect blood ketones	produced a significant decrease in blood ketones	14.65 ± 2.70	significantly blocked; also recorded: prevented	prevented an insulin induced increase in cerebral blood perfusion					
CC(C)C[C@@H]1NC(=O)[C@@H](C(C)C)NC(=O)[C@@H]2CCCN2C(=O)[C@@H](CC(=O)O)NC(=O)[C@@H](Cc2c[nH]c3ccccc23)NC1=O [BQ123, Cyclo(D-Trp-D-Asp-Pro-D-Val-Leu)] (cyclo(L[dW][dD]P[dV]))	484 ± 17	did not significantly affect blood glucose	312 ± 55	462 ± 55	28.22 ± 3.14			5.2 ± 0.36			prevented pulmonary edema	50	ameliorated	particularly marked decrease in blood ketones; also recorded: significantly decrease the blood ketones	significantly blocked; also recorded: prevented an insulin induced increase in cerebral blood perfusion
Insulin: Humulin® R (Regular human insulin, rDNA origin), infused with saline	530 ± 20	produced a significant decrease in blood glucose	200 ± 20	444 ± 26	31.925 ± 5.28			12.8 ± 4.04						produced a significant decrease in blood ketones	produced a marked (#P<0.05) increase in cerebral blood perfusion
